Measurements published in US20230146795A1, “ENHANCEMENT OF ANTI-TUMOR ACTIVITY OF SHP2 INHIBITOR PYRIMIDINONE IN COMBINATION WITH NOVEL CANCER MEDICINES IN CANCERS” (TAIHO PHARMACEUTICAL CO., LTD., priority 2020, published 2023).

How the values were obtained:
Format in all cases: cell-based
MV-4-11 = experiment: Anti-proliferation assay (CellTiter-Glo 2.0), combination index, MV-4-11
Description: (§1) Cell lines were obtained from ATCC or Health Science Research Resources Bank.
(§2) 384 well culture plate (781086, Greiner Bio-One International) was used for cell survival rate measurement assay. Each cell lines were collected by ordinary method, then suspended in indicated medium containing 10% fetal bovine serum in table 3. The number of cells seeded per well was set to 500 cells/20 μL. After incubation at 37° C. for 24 hours under 5% CO2, Compound 1 and additional compound having an antitumor effect or a vehicle (DMSO) was added to each well by using D300e Digital Dispenser (Tecan). The concentration of Compound 1 was set to 10 concentrations. The concentration of each anti-cancer reagents set to 8 concentrations including 0 nM. After adding the medicine to the cells, the cells were further incubated at 37° C. for 3 days under 5% CO2. Cell survival rates were calculated by adding 20 μL of CellTiter-Glo(registered trademark) 2. 0 (Promega) solution to each well, incubating the cells at room temperature for 10 minutes, and then measuring the chemiluminescence intensity of each well using a plate reader (ARVO).
(§3) A combination index (CI) value at each combined concentration of the medicines was determined.

NCI-H358 = experiment: Anti-proliferation assay (CellTiter-Glo 2.0), combination index, NCI-H358
In short: (§4)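 Cells were seeded at 500 cells/well in medium with 10% FBS and exposed to agents at 8 concentrations including 0 nM, for 3 days at 37° C under 5% CO2. Survival was read by CellTiter-Glo 2.0 luminescence, and combination index was determined at each combined concentration.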

MKN45 = experiment: Anti-proliferation assay (CellTiter-Glo 2.0), combination index, MKN45
Description: as §1
Each cell lines were collected by ordinary method, then suspended in indicated medium containing 10% fetal bovine serum in table 3. The number of cells seeded per well was set to 500 cells/20 μL. […] The concentration of each anti-cancer reagents set to 8 concentrations including 0 nM. After adding the medicine to the cells, the cells were further incubated at 37° C. for 3 days under 5% CO2. Cell survival rates were calculated by adding 20 μL of CellTiter-Glo(registered trademark) 2. 0 (Promega) solution to each well, incubating the cells at room temperature for 10 minutes, and then measuring the chemiluminescence intensity of each well using a plate reader (ARVO).
as §3

RT4 = experiment: Anti-proliferation assay (CellTiter-Glo 2.0), combination index, RT4
In short: as §4

RMG-I = experiment: Anti-proliferation assay (CellTiter-Glo 2.0), combination index, RMG-I
Description: as §1, §2, §3

[1] = Compound 1 41.2 + combination drug 13.7 nmol/L (1:0.3)
[2] = Compound 1 370 + combination drug 123 nmol/L (1:0.3)
[3] = Compound 1 1110 + combination drug 370 nmol/L (1:0.3)
[4] = Compound 1 3330 + combination drug 1110 nmol/L (1:0.3)
[5] = Compound 1 41.2 + combination drug 370 nmol/L (1:9)
[6] = Compound 1 123 + combination drug 1110 nmol/L (1:9)
[7] = Compound 1 370 + combination drug 3330 nmol/L (1:9)
[8] = Compound 1:combination drug molar ratio 1:9
[9] = Compound 1 123 + combination drug 10000 nmol/L (1:81)
[10] = Compound 1 13.7 + combination drug 13.7 nmol/L (1:1)
[11] = Compound 1 41.2 + combination drug 41.2 nmol/L (1:1)
[12] = Compound 1 123 + combination drug 123 nmol/L (1:1)
[13] = Compound 1 4.57 + combination drug 370 nmol/L (1:81)
[14] = Compound 1 13.7 + combination drug 1110 nmol/L (1:81)
[15] = Compound 1 41.2 + combination drug 3330 nmol/L (1:81)
[16] = Compound 1 370 + combination drug 370 nmol/L (1:1)
[17] = Compound 1 1110 + combination drug 1110 nmol/L (1:1)
[18] = Compound 1 3330 + combination drug 3330 nmol/L (1:1)
[19] = Compound 1 10000 + combination drug 10000 nmol/L (1:1)
[20] = Compound 1 123 + combination drug 370 nmol/L (1:3)
[21] = Compound 1 370 + combination drug 1110 nmol/L (1:3)
[22] = Compound 1 13.7 + combination drug 123 nmol/L (1:9)
[23] = Compound 1 1110 + combination drug 10000 nmol/L (1:9)
[24] = Compound 1 13.7 + combination drug 370 nmol/L (1:27)
[25] = Compound 1 41.2 + combination drug 1110 nmol/L (1:27)
[26] = Compound 1 123 + combination drug 3330 nmol/L (1:27)
[27] = Compound 1 370 + combination drug 10000 nmol/L (1:27)

## CNC(=O)c1cc(Oc2ccc(NC(=O)Nc3ccc(Cl)c(C(F)(F)F)c3)cc2)ccn1 [Sorafenib]
MV-4-11; [1]
  CI: 0.116
  Fa: 0.9439
MV-4-11; Compound 1 123 + combination drug 41.2 nmol/L (1:0.3)
  Fa: 0.9578
MV-4-11; [2]
  CI: 0.301
  Fa: 0.9643
MV-4-11; [3]
  CI: 0.759
  Fa: 0.9665
MV-4-11; [4]
  CI: 0.865
  Fa: 0.9766

## CCN(CC)CCNC(=O)c1c(C)[nH]c(/C=C2\C(=O)Nc3ccc(F)cc32)c1C [Sunitinib]
NCI-H358; [5]
  CI: 0.502
  Fa: 0.4562
NCI-H358; [6]
  CI: 0.747
  Fa: 0.7002
NCI-H358; [7]
  CI: 0.612
  Fa: 0.9541
NCI-H358; [8]
  Description (combinatory effect by CI): Synergy (0.3-0.7)
MKN45; [9]
  CI: 0.818
  Fa: 0.8052
MV-4-11; [10]
  CI: 0.262
  Fa: 0.9463
MV-4-11; [11]
  CI: 0.327
  Fa: 0.9651
MV-4-11; [12]
  CI: 0.902
  Fa: 0.9666
RT4; [13]
  CI: 0.687
  Fa: 0.1808
RT4; [14]
  CI: 0.392
  Fa: 0.4883
RT4; [15]
  CI: 0.624
  Fa: 0.6270
RT4; Compound 1:combination drug molar ratio 1:81
  Description (combinatory effect by CI): Synergy (0.3-0.7)

## CC(C)Nc1cc(-c2c[nH]c(C(=O)N[C@H](CO)c3cccc(Cl)c3)c2)c(Cl)cn1 [Ulixertinib]
NCI-H358; [12]
  CI: 0.709
  Fa: 0.2823
NCI-H358; [16]
  CI: 0.379
  Fa: 0.5072
NCI-H358; [17]
  CI: 0.237
  Fa: 0.7490
NCI-H358; [18]
  CI: 0.260
  Fa: 0.8778
NCI-H358; [19]
  CI: 0.284
  Fa: 0.9536
MKN45; [20]
  CI: 0.483
  Fa: 0.5887
MKN45; [21]
  CI: 0.644
  Fa: 0.7816
MKN45; Compound 1:combination drug molar ratio 1:3
  Description (combinatory effect by CI): Synergy (0.3-0.7)
RT4; [22]
  CI: 0.759
  Fa: 0.1321
RT4; [5]
  CI: 0.310
  Fa: 0.3352
RT4; [6]
  CI: 0.330
  Fa: 0.4921
RT4; [7]
  CI: 0.622
  Fa: 0.5670
RT4; [8]
  Description (combinatory effect by CI): Synergy (0.3-0.7)

## CC1(C)CCC(CN2CCN(c3ccc(C(=O)NS(=O)(=O)c4ccc(NCC5CCOCC5)c([N+](=O)[O-])c4)c(Oc4cnc5[nH]ccc5c4)c3)CC2)=C(c2ccc(Cl)cc2)C1 [Venetoclax]
RMG-I; [6]
  CI: 0.687
  Fa: 0.4133
RMG-I; [7]
  CI: 0.601
  Fa: 0.5921
RMG-I; [23]
  CI: 0.668
  Fa: 0.9240
RMG-I; [8]
  Description (combinatory effect by CI): Synergy (0.3-0.7)
MV-4-11; [10]
  CI: 0.424
  Fa: 0.7436
MV-4-11; [11]
  CI: 0.080
  Fa: 0.9696
MV-4-11; [12]
  CI: 0.007
  Fa: 0.9987
RT4; [24]
  CI: 0.479
  Fa: 0.1751
RT4; [25]
  CI: 0.497
  Fa: 0.3605
RT4; [26]
  CI: 0.888
  Fa: 0.5099
RT4; [27]
  CI: 0.888
  Fa: 0.8781
RT4; Compound 1:combination drug molar ratio 1:27
  Description (combinatory effect by CI): Synergy (0.3-0.7)
